Experimental data reported in patent publication US11104689B2, “Influenza virus replication inhibitor and use thereof” (SUNSHINE LAKE PHARMA CO., LTD., priority 2017, dated 2021).
Like-named read-outs stand apart in the source and are kept apart here.

Assays:
[1] = system: influenza virus (A/Weiss/43(H1N1)); experiment: Cytopathic effect assay (CPE assay), antiviral activity; format: cell-based; details: MDCK cells, CPE inhibition, CCK-8, read-out: EC50 against influenza virus (A/Weiss/43(H1N1)) in vitro
[2] = system: MDCK cells; experiment: Cytotoxicity test group of the CPE assay (no virus added, CCK-8 kit); format: cell-based
Protocol: (§1) Experimental Procedures: MDCK cells were seeded in a 384-well plate with 2000 cells per wells, which were incubated overnight at 37° C., 5% CO2; The culture medium was changed to the fresh culture solution containing different concentrations of the compound and virus H1N1 A/Weiss/43 at a multiplicity of infection to yield 80-95% CPE on the second day. The test compound was serially diluted from the highest concentration of 100 nM in 1:3 dilutions to give 8 concentrations: 100 nM, 33.33 nM, 11.11 nM, 3.70 nM, 1.23 nM, 0.41 nM, 0.14 nM, 0.05 nM. At the same time, a non-medicated virus control group and a non-medicated cell control group free of virus were set up. No virus was added in the cytotoxicity test group but medium was added for replacement. Each group was set in duplicate, and incubated at 37° C. in 5% CO2. The cell activity was measured according to the CCK-8 kit (source: Shanghai Liji Biotechnology Co., Ltd. #D3100L4057) and the data would be used to calculate the antiviral and cytotoxicity of the compound. Data were analyzed by GraphPad Prism, CPE inhibition rate was calculated, and the EC50 was obtained according to the fitted curve. CPE inhibition rate=(absorbance of dosing hole-absorbance of virus control well)/(absorbance of cell control well-virus control well)×100%

[3] = as above; format: cell-based; details: dog, MDCK cells
Protocol: as §1

[4] = design: species or system Beagle dogs; details: male, beagle, dog, in vivo
Protocol: Pharmacokinetic studies of compounds of the invention in healthy adult male SD rats, dogs or monkeys were evaluated. The compound of the present invention was administered in form of a solution containing 10% DMSO+10% Kolliphor HS 15+80% physiological saline solution. For intravenous (iv) administration, animals were given with a dose of 0.2 or 1 mg/kg and blood was taken at 0.083, 0.25, 0.5, 1.0, 2.0, 5.0, 7.0, and 24 hours (0.3 mL) and centrifugated for 10 minutes at 3,000 or 4,000 rpm. For oral (po) administration, animals were given with a dose of 1 or 5 mg/kg, taken at 0.25, 0.5, 1.0, 2.0, 5.0, 7.0, and 24 hours (0.3 mL) and centrifugated at 3,000 or 4,000 rpm for 10 minutes. The plasma solution was collected and stored at −20° C. or −70° C. until the LC/MS/MS analysis was performed.

Molecule	CC50 [3]	EC50 ([1]; H1N1)	other results
(12aR)-12-((8R)-4,5-difluoro-2-phenyl-8H-dibenzo[3,4:6,7]cyclohept[1,2-b]thiophen-8-yl)-7-hydroxy-3,4,12,12a-tetrahydro-1H-[1,4]oxazino[3,4-c]pyrido[2,1-f] [1,2,4] triazine-6,8-dione and (12aS)-12-((8S)-4,5-difluoro-2-phenyl-8H-dibenzo[3,4:6,7]cyclohept[1,2-b]thiophen-8-yl)-7-hydroxy-3,4,12,12a-tetrahydro-1H-[1,4] oxazino [3,4-c] pyrido [2,1-f][1,2,4] triazine-6,8-dione [Example 12]	–	–	EC50 [1]: 49.3 nM; CC50 [2]: 112000 nM
The mixture of (12aR)-12-((8R)-4-fluoro-8H-dibenzo [3,4:6,7]cyclohepta[1,2-b]thiophen-8-yl)-7-hydroxy-3,4,12,12a-tetrahydro-1H-[1,4]oxazino [3,4-c] pyrido [2,1-f] [1,2,4]triazine-6,8-dione and (12aR)-12-((8S)-4-fluoro-8H-dibenzo [3,4:6,7] cyclohept[1,2-b]thiophen-8-yl)-7-hydroxy-3,4,12,12a-tetrahydro-1H-[1,4]oxazino [3,4-c] pyrido [2,1-f] [1,2,4]triazine-6,8-dione [Example 36]	–	–	EC50 [1]: 9.87 nM; CC50 [2]: 36000 nM
O=C1c2c(O)c(=O)ccn2N(C2c3ccccc3SCc3c2ccc2ccccc32)C2COCCN12 (stereo not drawn) [Example 5, 12-(7,13-Dihydrobenzo [b]naphtho [2,1-e]thiepin-7-yl)-7-hydroxy-3,4,12,12a-tetrahydro-1H-[1,4] oxazino [3,4-c] pyrido [2,1-f] [1,2,4]triazine-6,8-dione]	> 100000 nM	–	–
COC(=O)OCOc1c2n(ccc1=O)N([C@H]1c3ccc(F)cc3-c3ccsc3-c3ccccc31)[C@@H]1COCCN1C2=O [Example 28, methyl (((R)-12-((S)-5-fluoro-8H-dibenzo [3,4:6,7]cyclohept[1,2-b]thiophen-8-yl)-6,8-dioxo 3,4,6,8,12,12a-hexahydro-1H-[1,4]oxazino [3,4-c]pyrido [2,1-f] [1,2, 4]triazin-7-yl)oxy)methyl carbonate]	–	–	Conversion in animals [4]: converted to the compound of Example 21 (21-1) in animals; AUCINF ([4]; iv, 0.2 mg/kg): 1030 ng·h/mL; AUClast ([4]; iv, 0.2 mg/kg): 996 ng·h/mL; Cmax ([4]; iv, 0.2 mg/kg): 144 ng/mL; clearance ([4]; iv, 0.2 mg/kg): 3.22 mL/min/kg; t1/2 ([4]; iv, 0.2 mg/kg): 4.91 h; AUCINF ([4]; po, 1 mg/kg): 2580 ng·h/mL; AUClast ([4]; po, 1 mg/kg): 2430 ng·h/mL; Cmax ([4]; po, 1 mg/kg): 311 ng/mL; F ([4]; po, 1 mg/kg): 57.6%; t1/2 ([4]; po, 1 mg/kg): 5.72 h
O=C1c2c(O)c(=O)ccn2N([C@H]2c3ccc(F)c(F)c3CSc3c2ccc2ccccc32)[C@@H]2COCCN12 (racemic) [Example 7, (R)-12-((S)-10,11-difluoro-7,12-dihydrobenzo [e]naphtho [1,2-b]thiepin-7-yl)-7-hydroxy-3,4,12,12a-tetrahydro-11H-[1,4] oxazino [3,4-c] pyrido [2,1-f] [1,2,4] triazine-6,8-dione and (S)-12-((R)-10,11-difluoro-7,12-dihydrobenzo[e]naphtho[1,2-b]thiepin-7-yl)-7-hydroxy-3,4,12,12a-tetrahydro-1H-[1,4]oxazino[3,4-c]pyrido[2,1-f][1,2,4]triazine-6,8-dione]	> 100000 nM	–	–
O=C1c2c(O)c(=O)ccn2N(C2c3ccccc3-c3cc(Cl)sc3-c3ccccc32)[C@@H]2COCCN12 (stereo partly drawn) [Example 15, (12aR)-12-(2-chloro-8H-dibenzo [3,4:6,7]cyclohept[1,2-b]thiophen-8-yl)-7-hydroxy-3,4,12,12a-tetrahydro-1H-[1,4] oxazino [3,4-c] pyrido [2,1-f] [1,2,4]triazine-6,8-dione]	39400 nM	–	–
O=C1c2c(O)c(=O)ccn2N([C@H]2c3ccccc3-c3ccsc3-c3ccccc32)[C@@H]2COCCN12 (racemic) [Example 2, (R)-12-((S)-8H-dibenzo [3,4:6,7]cycloheptyl [1,2-b]thiophen-8-yl)-7-hydroxy-3,4,12,12a-tetrahydro-1H-[1,4] oxazino[3,4-c] pyrido [2,1-f] [1,2,4] triazine-6,8-dione and (S)-12-((R)-8H-dibenzo [3,4:6,7]cycloheptyl [1,2-b]thiophen-8-yl)-7-hydroxy-3,4,12,12a-tetrahydro-1H-[1,4] oxazino[3,4-c] pyrido [2,1-f][1,2,4] triazine-6,8-dione]	> 100000 nM	22.8 nM	–
O=C1c2c(O)c(=O)ccn2N(C2c3ccccc3-c3ccsc3-c3c2ccc(F)c3F)C2COCCN12 (stereo not drawn) [Example 11, 12-(11,12-Difluoro-8H-dibenzo [3,4:6,7]cycloheptyl [1,2-b]thiophen-8-yl)-7-Hydroxy-3,4,12, 12a-tetrahydro-1H-[1,4]oxazino[3,4-c]pyrido[2,1-f][1,2,4]triazine-6,8-dione]	–	48.7 nM	–
O=C1c2c(O)c(=O)ccn2N([C@H]2c3ccccc3-c3ccsc3-c3ccccc32)[C@H]2COCCN12 (racemic) [Example 3, (S)-12-((S)-8H-dibenzo [3,4:6,7]cycloheptyl [1,2-b]thiophen-8-yl)-7-hydroxy-3,4,12,12a-tetrahydro-1H-[1,4] oxazino [3,4-c] pyrido [2,1-f] [1,2,4] triazine-6,8-dione and (R)-12-((R)-8H-dibenzo [3,4:6,7]cycloheptyl [1,2-b]thiophen-8-yl)-7-hydroxy-3,4,12,12a-tetrahydro-1H-[1,4] oxazino [3,4-c] pyrido [2,1-f][1,2,4] triazine-6,8-dione]	> 100000 nM	23.5 nM	–
O=C1c2c(O)c(=O)ccn2N([C@H]2c3ccc(F)cc3-c3ccsc3-c3ccccc32)[C@@H]2COCCN12 (mixture of isomers) [Example 37, The mixture of (R)-12-((S)-5-fluoro-8H-dibenzo[3,4:6,7]cyclohepta[1,2-b]thiophen-8-yl)-7-hydroxy-3,4,12,12a-tetrahydro-1H-[1,4]oxazino[3,4-c]pyrido[2,1-f][1,2,4]triazine-6,8-dione and (S)-12-((R)-5-fluoro-8H-dibenzo [3,4:6,7]cyclohepta[1,2-b]thiophen-8-yl)-7-hydroxy-3,4,12,12a-tetrahydro-1H-[1,4]oxazino [3,4-c]pyrido [2,1-f][1,2,4]triazine-6,8-dione]	104000 nM	14.9 nM	–
O=C1c2c(O)c(=O)ccn2N([C@H]2c3ccc(F)cc3-c3ccsc3-c3ccccc32)[C@@H]2COCCN12 [Compound (20-1), (R)-12-((S)-5-fluoro-8H-dibenzo [3,4:6,7]cyclohept[1,2-b]thiophen-8-yl)-7-hydroxy-3,4,12,12a-tetrahydro-1H-[1,4]oxazino[3,4-c]pyrido[2,1-f][1,2,4]triazine-6,8-diketone]	–	–	EC50 [1]: 4.9 nM
O=C1c2c(O)c(=O)ccn2N([C@H]2c3ccc(F)cc3-c3ccsc3-c3cc(F)ccc32)[C@@H]2COCCN12 [Compound (17-1), (R)-12-((S)-5,11-difluoro-8H-dibenzo[3,4:6,7]cyclohepta[1,2-b]thiophen-8-yl)-7-hydroxy-3,4,12,12a-tetrahydro-1H-[1,4]oxazino[3,4-c]pyrido[2,1-f][1,2,4]triazine-6,8-dione]	77500 nM	18.8 nM	–
COc1cccc2c1-c1ccsc1-c1ccccc1C2N1[C@@H]2COCCN2C(=O)c2c(O)c(=O)ccn21 (stereo in doubt) [Example 19, (12aR)-7-hydroxy-12-((8R)-4-methoxy-8H-dibenzo [3,4:6,7]cyclohept[1,2-b]thiophen-8-yl)-3,4,12,12a-tetrahydro-1H-[1,4]oxazino[3,4-c]pyrido[2,1-f] [1,2,4]triazine-6,8-dione]	> 100000 nM	34.1 nM	–
O=C1c2c(O)c(=O)ccn2N([C@H]2c3ccccc3-c3cnoc3-c3ccccc32)[C@@H]2COCCN12 [Example 38, 12-(8H-Dibenzo [3,4:6,7]cyclohepta[1,2-d]isoxazol-8-yl)-7-hydroxy-3,4,12,12a-tetrahydro-1H-[1,4]oxazino[3,4-c]pyrido[2,1-f] [1,2,4]triazin-6,8-dione]	> 100000 nM	38 nM	–
O=C1c2c(O)c(=O)ccn2N([C@@H]2c3ccccc3-c3sccc3-c3c(F)cccc32)[C@@H]2COCCN12 [Compound (21-2), (12aR)-12-((8S)-4-fluoro-8H-dibenzo [3,4:6,7]cyclohept[1,2-b]thiophen-8-yl)-7-hydroxy-3,4,12,12a-tetrahydro-1H-[1,4]oxazino[3,4-c]pyrido[2,1-f] [1,2,4]triazine-6,8-dione]	–	18.9 nM	–
